US10508086B2 (CANCER RESEARCH TECHNOLOGY LIMITED, priority 2014, dated 2019)
pEC50, pIC50: −log10 of the molar value.

Assays:
Human Full Length PARG = Human Full Length PARG (Homo sapiens (Human), UniProt Q86W56); test: PARG in vitro enzyme assay (TR-FRET); format: biochemical; details: read-out: PARG_EC50_ENZYME
Method in brief: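 Full-length human PARG ([…]) incubated with ribosylated PARP substrate (4.5 nM) for 10 min at room temperature in Tris pH 7.4 buffer with EDTA, EGTA, DTT, KCl. Detection by TR-FRET using anti-6HIS XL665 (14 nM final) and streptavidin europium cryptate (0.75 nM final) after 60 min; Em665/Em620 ratio converted to percent inhibition.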

PARG in HeLa cell line = PARG in HeLa cell line (Homo sapiens (Human), UniProt Q86W56); test: PARG cell assay (nuclear PAR chains after MMS, immunofluorescence); format: cell-based; details: HeLa cells, MMS 50 μg/mL; read-out: PARG Cell IC50 Geomean
Sequence of PARG in HeLa cell line (Q86W56 whole entry): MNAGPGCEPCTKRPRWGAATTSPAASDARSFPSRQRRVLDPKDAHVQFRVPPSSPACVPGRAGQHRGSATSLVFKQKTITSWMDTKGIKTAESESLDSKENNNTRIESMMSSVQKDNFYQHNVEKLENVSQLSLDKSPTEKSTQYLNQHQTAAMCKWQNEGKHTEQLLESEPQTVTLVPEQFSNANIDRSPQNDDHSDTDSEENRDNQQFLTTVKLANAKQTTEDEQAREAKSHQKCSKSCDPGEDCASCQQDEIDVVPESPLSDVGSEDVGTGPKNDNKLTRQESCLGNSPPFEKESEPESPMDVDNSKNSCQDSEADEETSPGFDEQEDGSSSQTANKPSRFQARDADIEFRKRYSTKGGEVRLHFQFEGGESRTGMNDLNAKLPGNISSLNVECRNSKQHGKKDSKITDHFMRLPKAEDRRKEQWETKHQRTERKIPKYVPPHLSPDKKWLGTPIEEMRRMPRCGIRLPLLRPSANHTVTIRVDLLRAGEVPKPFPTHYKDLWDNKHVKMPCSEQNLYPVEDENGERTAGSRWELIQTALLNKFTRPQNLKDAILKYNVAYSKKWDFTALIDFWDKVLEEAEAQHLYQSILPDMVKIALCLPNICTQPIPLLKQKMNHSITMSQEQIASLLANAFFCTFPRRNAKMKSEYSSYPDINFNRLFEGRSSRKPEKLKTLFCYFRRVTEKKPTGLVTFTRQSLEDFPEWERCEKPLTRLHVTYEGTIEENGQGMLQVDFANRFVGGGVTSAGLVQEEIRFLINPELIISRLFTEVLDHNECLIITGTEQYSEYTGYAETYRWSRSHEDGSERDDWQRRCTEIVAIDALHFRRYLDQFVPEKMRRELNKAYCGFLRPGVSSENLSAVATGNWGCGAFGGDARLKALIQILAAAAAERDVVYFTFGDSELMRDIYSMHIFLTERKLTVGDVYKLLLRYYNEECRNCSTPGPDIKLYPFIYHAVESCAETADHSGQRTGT
Description: This method is based on the detection of endogenous levels of poly (ADP) ribose chains present in the nucleus of HeLa cell line using indirect immunofluorescence. MMS stimulation increases PAR chains for up to 25 mins. After that point, PARG is active and breaks down the PAR chains, until by one hour after stimulation no PAR chains are detectable. Inhibition of PARG maintains PAR chains.
Briefly, following compound treatment and treatment with the DNA damaging agent methylmethanesulfonate (MMS), the cell monolayer is fixed, then permeabilised and incubated with a mouse monoclonal antibody raised against multimers of poly(ADP) ribose. After an overnight incubation, excess antibody is removed by washing and an Alexafluor 488-linked secondary antibody which recognises the mouse monoclonal is added together with a nuclear stain (Hoechst 33342). Images of the cells are then captured and analysed on a High Content Screening platform and the total intensity of the nuclear fluorescent signal at […] is quantified.
HeLa cells, seeded in 384-well plates, at 4000/well in 30 μL RPMI 1640 media, supplemented with 10% FBS and 2 mM Glutamax, were incubated overnight at 37° C., 5% CO2.
The following day, cells were dosed in quadruplicate with compound (10 point dose response) and incubated for 1 h at 37° C., 5% CO2.
At the end of the 1 h dosing period, MMS was added to duplicates at a final concentration of 50 μg/mL, for a further hour.
Media was tipped off and the cells fixed with 50 μL ice-cold 95% MetOH/PBS for 15 mins at −20° C. Following a PBS wash, 50 μL PBS/0.1% Triton was added to the cells for 20 mins. Following another PBS wash, anti-PAR antibody (Calbiochem AM80) was diluted 1:4000 in a buffer (PBS+0.5% FBS+0.05% Tween20) and added to the cells and incubated overnight at 4° C.
The following day, cells were washed three times with PBS and then incubated for 1 hr with secondary antibody (Alexa Fluor® 488 goat anti mouse IgG (H+L)) diluted 1:1000 and Hoechst diluted 1:5000 in buffer (5% FBS in PBS+0.05% Tween20).
Cells were washed three times with PBS and the plate sealed with a light-proof seal.
Images of the cells were captured on a ThermoFisher Celllnsight and the mean total intensity of spots fluorescent at 485 nm in the nucleus was reported.

Sequence of Human Full Length PARG (Q86W56 whole entry): as above

| Structure (SMILES) | pEC50 (Human Full Length PARG) | pIC50 (PARG in HeLa cell line) |
| --- | --- | --- |
| Cc1nnc(-n2c(=O)[nH]c3cc(F)c(S(=O)(=O)NC4(C)CC4)cc32)o1 [Example 192, 6-Fluoro-N-(1-methylcyclopropyl)-3-(5-methyl-1,3,4-oxadiazol-2-yl)-2-oxo-1H-benzimidazole-5-sulfonamide] | 5.84 | 4.93 |
| C#CCn1c(=O)n(-c2nnc(C(F)F)s2)c2cc(S(=O)(=O)NC3(CF)CC3)ccc21 [Example 193, 3-[5-(Difluoromethyl)-1,3,4-thiadiazol-2-yl]-N-[1-(fluoromethyl)cyclopropyl]-2-oxo-1-prop-2-ynyl-benzimidazole-5-sulfonamide] | 6.82 | 7.40 |
| Cc1nnc(-n2c(=O)[nH]c3cc(F)c(S(=O)(=O)NC4(CF)CC4)cc32)o1 [Example 194, 6-Fluoro-N-[1-(fluoromethyl)cyclopropyl]-3-(5-methyl-1,3,4-oxadiazol-2-yl)-2-oxo-1H-benzimidazole-5-sulfonamide] | 5.91 | < 4.52 |
| Cn1c(=O)n(-c2nnc(C(F)F)o2)c2cc(S(=O)(=O)NC3(C)CC3)ccc21 [Example 195, 3-[5-(Difluoromethyl)-1,3,4-oxadiazol-2-yl]-1-methyl-N-(1-methylcyclopropyl)-2-oxo-benzimidazole-5-sulfonamide] | 6.00 | 6.34 |
| Cn1c(=O)n(-c2nnc(C(F)F)o2)c2cc(S(=O)(=O)NC3(CF)CC3)ccc21 [Example 196, 3-[5-(Difluoromethyl)-1,3,4-oxadiazol-2-yl]-N-[1-(fluoromethyl)cyclopropyl]-1-methyl-2-oxo-benzimidazole-5-sulfonamide] | 6.10 | 6.33 |
| Cc1nnc(-n2c(=O)n(C)c3cc(F)c(S(=O)(=O)NC4(C)CC4)cc32)o1 [Example 197, 6-Fluoro-1-methyl-N-(1-methylcyclopropyl)-3-(5-methyl-1,3,4-oxadiazol-2-yl)-2-oxo-benzimidazole-5-sulfonamide] | 6.12 | 6.27 |
| Cc1nnc(-n2c(=O)n(CCF)c3cc(F)c(S(=O)(=O)NC4(C)CC4)cc32)o1 [Example 198, 6-Fluoro-1-(2-fluoroethyl)-N-(1-methylcyclopropyl)-3-(5-methyl-1,3,4-oxadiazol-2-yl)-2-oxo-benzimidazole-5-sulfonamide] | 6.38 | 6.53 |
| CCn1c(=O)n(-c2nnc(C(F)F)o2)c2cc(S(=O)(=O)NC3(C)CC3)c(F)cc21 [Example 199, 3-[5-(Difluoromethyl)-1,3,4-oxadiazol-2-yl]-1-ethyl-6-fluoro-N-(1-methylcyclopropyl)-2-oxo-benzimidazole-5-sulfonamide] | 6.50 | 6.84 |
| CCn1c(=O)n(-c2nnc(C(F)F)o2)c2cc(S(=O)(=O)NC3(C)CC3)ccc21 [Example 201, 3-[5-(Difluoromethyl)-1,3,4-oxadiazol-2-yl]-1-ethyl-N-(1-methylcyclopropyl)-2-oxo-benzimidazole-5-sulfonamide] | 6.12 | 6.72 |
| CCn1c(=O)n(-c2nnc(C(F)F)o2)c2cc(S(=O)(=O)NC3(CF)CC3)ccc21 [Example 202, 3-[5-(Difluoromethyl)-1,3,4-oxadiazol-2-yl]-1-ethyl-N-[1-(fluoromethyl)cyclopropyl]-2-oxo-benzimidazole-5-sulfonamide] | 6.38 | 6.62 |
| COCCn1c(=O)n(-c2ccc(C)nn2)c2cc(S(=O)(=O)NC3(CF)CC3)c(F)cc21 [Example 203, 6-Fluoro-N-[1-(fluoromethyl)cyclopropyl]-1-(2-methoxyethyl)-3-(6-methylpyridazin-3-yl)-2-oxo-benzimidazole-5-sulfonamide] | 5.32 | 5.43 |
| Cc1ccc(-n2c(=O)n(C)c3cc(F)c(S(=O)(=O)NC4(CF)CC4)cc32)nn1 [Example 204, 6-Fluoro-N-[1-(fluoromethyl)cyclopropyl]-1-methyl-3-(6-methylpyridazin-3-yl)-2-oxo-benzimidazole-5-sulfonamide] | 5.21 | 5.37 |
| Cc1ccc(-n2c(=O)n(C)c3cc(F)c(S(=O)(=O)NC4(C)CC4)cc32)nn1 [Example 205, 6-Fluoro-1-methyl-N-(1-methylcyclopropyl)-3-(6-methylpyridazin-3-yl)-2-oxo-benzimidazole-5-sulfonamide] | 5.17 | 5.24 |
| Cn1c(=O)n(-c2ccc(C(F)(F)F)nn2)c2cc(S(=O)(=O)NC3(CF)CC3)c(F)cc21 [Example 206, 6-Fluoro-N-[1-(fluoromethyl)cyclopropyl]-1-methyl-2-oxo-3-[6-(trifluoromethyl)pyridazin-3-yl]benzimidazole-5-sulfonamide] | 5.40 | 6.01 |
| CCn1c(=O)n(-c2nnc(C(F)F)s2)c2cc(S(=O)(=O)NC3(C)CC3)c(F)cc21 [Example 207, 3-[5-(Difluoromethyl)-1,3,4-thiadiazol-2-yl]-1-ethyl-6-fluoro-N-(1-methylcyclopropyl)-2-oxo-benzimidazole-5-sulfonamide] | 6.88 | 7.62 |
| Cn1c(=O)n(-c2nnc(C(F)F)o2)c2cc(S(=O)(=O)NC3(C)CC3)c(F)cc21 [Example 209, 3-[5-(Difluoromethyl)-1,3,4-oxadiazol-2-yl]-6-fluoro-1-methyl-N-(1-methylcyclopropyl)-2-oxo-benzimidazole-5-sulfonamide] | 6.03 | 6.66 |
| Cn1c(=O)n(-c2nnc(C(F)F)o2)c2cc(S(=O)(=O)NC3(CF)CC3)c(F)cc21 [Example 210, 3-[5-(Difluoromethyl)-1,3,4-oxadiazol-2-yl]-6-fluoro-N-[1-(fluoromethyl)cyclopropyl]-1-methyl-2-oxo-benzimidazole-5-sulfonamide] | 6.46 | 6.65 |
| NC(=O)Cn1c(=O)n(-c2nnc(C(F)F)s2)c2cc(S(=O)(=O)NC3(CF)CC3)c(F)cc21 [Example 214, 2-[3-[5-(Difluoromethyl)-1,3,4-thiadiazol-2-yl]-6-fluoro-5-[[1-(fluoromethyl)cyclopropyl]sulfamoyl]-2-oxo-benzimidazol-1-yl]acetamide] | 6.78 | 5.82 |
| N#CCn1c(=O)n(-c2nnc(C(F)F)s2)c2cc(S(=O)(=O)NC3(CF)CC3)c(F)cc21 [Example 215, 1-(Cyanomethyl)-3-[5-(difluoromethyl)-1,3,4-thiadiazol-2-yl]-6-fluoro-N-[1-(fluoromethyl)cyclopropyl]-2-oxo-benzimidazole-5-sulfonamide] | 6.77 | 7.07 |
| CC1(NS(=O)(=O)c2cc3c(cc2F)n(CCF)c(=O)n3-c2nnc(C(F)F)s2)CC1 [Example 217, 3-[5-(Difluoromethyl)-1,3,4-thiadiazol-2-yl]-6-fluoro-1-(2-fluoroethyl)-N-(1-methylcyclopropyl)-2-oxo-benzimidazole-5-sulfonamide] | 6.81 | 7.44 |
| CCOC(=O)c1oc2ccc(S(=O)(=O)NC3(C)CC3)cc2c1C [Example 218, Ethyl 3-methyl-5-[(1-methylcyclopropyl)sulfamoyl]benzofuran-2-carboxylate] | 4.80 | 5.55 |
